For ten molecules, TGI results are on record in PubChem BioAssay (NCI).

Molecules are shown by their SMILES.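 Briefly, cells in 96-well plates were exposed to five compound concentrations for 48 h, and endpoints were estimated by linear interpolation. TGI marks complete inhibition of growth.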 Bounds are passed on as bounds.

Among the test systems are A498 renal; ACHN renal; CAKI-1 renal; COLO 205 colon; EKVX NSCLC; HCT-15 colon; IGROV1 ovarian; LXFL 529 NSCLC; M14 melanoma; MOLT-4 leukemia; NCI-H23 lung; NCI-H522 lung; SF-268 CNS; SK-MEL-2 melanoma; SK-OV-3 ovarian; UACC-257 melanoma; UACC-62 melanoma; SF-295 CNS.
Test in all cases: NCI anticancer screen, dose series, 48 h

For the molecule `CCc1ccc(Cc2ccc(CC)c(NC(=O)C(=O)C3NC(=S)NC3=O)c2CC)c(CC)c1NC(=O)C(=O)C1NC(=S)NC1=O` (configuration not stated), the TGI with A498 renal, in the assay with ACHN renal, in the assay on CAKI-1 renal, in the assay with COLO 205 colon, with EKVX NSCLC and with HCT-15 colon was above 100 µM in each case. For the same molecule, the TGI in the assay on IGROV1 ovarian, in the assay with LXFL 529 NSCLC, with M14 melanoma, in the assay with MOLT-4 leukemia, with NCI-H23 lung and with NCI-H522 lung was above 100 µM throughout. Also, the TGI in the assay with SF-268 CNS, in the assay with SK-MEL-2 melanoma, in the assay with SK-OV-3 ovarian, in the assay with UACC-257 melanoma and in the assay with UACC-62 melanoma was above 100 µM throughout.

For the molecule `CC(C)(CCl)NC(=O)c1cccc(C(=O)NC(C)(C)CCl)n1`, the TGI in the assay on A498 renal, with ACHN renal, in the assay with CAKI-1 renal, in the assay with COLO 205 colon, with EKVX NSCLC and with HCT-15 colon was above 100 µM in each case. Moreover, the TGI with IGROV1 ovarian, in the assay on LXFL 529 NSCLC, in the assay on M14 melanoma, in the assay with MOLT-4 leukemia, in the assay on NCI-H23 lung and with NCI-H522 lung was above 100 µM in each case. The TGI in the assay on SF-268 CNS, in the assay with SF-295 CNS, in the assay on SK-MEL-2 melanoma and in the assay on SK-OV-3 ovarian was above 100 µM in each case.

For `CC(C)c1cccc(C(C)C)c1NC(=O)C(=O)C1CCC2=C(Sc3ccccc3N2)C1=O` (configuration not stated), the TGI with A498 renal was above 100 µM; with ACHN renal it was above 100 µM; with CAKI-1 renal, above 100 µM; with COLO 205 colon it was 79.7 µM; in the assay with EKVX NSCLC, above 100 µM; in the assay with HCT-15 colon, above 100 µM. The TGI in the assay with IGROV1 ovarian, in the assay with LXFL 529 NSCLC, in the assay with M14 melanoma, with MOLT-4 leukemia, in the assay with NCI-H23 lung and in the assay with SF-268 CNS was above 100 µM in each case. The TGI in the assay with SF-295 CNS, with SK-MEL-2 melanoma, in the assay on SK-OV-3 ovarian, in the assay with UACC-257 melanoma and in the assay with UACC-62 melanoma was above 100 µM each time.

With `CC(C)(C)OC(=O)N1CC(C)(C)N2C(=O)C3(CCCO3)C12` (configuration not stated), the TGI with A498 renal, in the assay on ACHN renal, in the assay on CAKI-1 renal, in the assay on COLO 205 colon, in the assay with EKVX NSCLC and with HCT-15 colon was above 100 µM throughout. Also, the TGI in the assay on IGROV1 ovarian, in the assay with LXFL 529 NSCLC, in the assay with M14 melanoma, in the assay with MOLT-4 leukemia, with NCI-H23 lung and in the assay on NCI-H522 lung was above 100 µM each time. Further, the TGI in the assay on SF-268 CNS, with SF-295 CNS, in the assay with SK-MEL-2 melanoma, in the assay with SK-OV-3 ovarian, with UACC-257 melanoma and in the assay on UACC-62 melanoma was above 100 µM each time.

As to `C#CC(C)(C)OCCCCOc1cc(O)c2c(=O)c3ccccc3n(C)c2c1`, the TGI in the assay on A498 renal was above 100 µM; with ACHN renal, above 100 µM; in the assay on CAKI-1 renal, above 100 µM; with COLO 205 colon it was 80.4 µM; with EKVX NSCLC, above 100 µM; in the assay with HCT-15 colon, above 100 µM. In addition, the TGI in the assay with IGROV1 ovarian, with LXFL 529 NSCLC, in the assay on M14 melanoma, with NCI-H23 lung, in the assay on NCI-H522 lung and in the assay on SF-268 CNS was above 100 µM in each case. Further, the TGI in the assay with SF-295 CNS, in the assay on SK-MEL-2 melanoma, in the assay on SK-OV-3 ovarian, in the assay with UACC-257 melanoma and in the assay with UACC-62 melanoma was above 100 µM throughout.

Regarding `O=C(O[C@H]1[C@@H]2C=CO[C@@H](OC3OC(CO)C(O)C(O)C3O)[C@@H]2[C@@]2(CO)O[C@@H]12)c1ccc(O)c(O)c1` (some centres not stated), the TGI in the assay on A498 renal, in the assay on ACHN renal, in the assay on CAKI-1 renal, in the assay with COLO 205 colon, with EKVX NSCLC and with IGROV1 ovarian was above 100 µM in each case. The TGI with LXFL 529 NSCLC, in the assay on M14 melanoma, in the assay on MOLT-4 leukemia, in the assay with NCI-H23 lung, in the assay on NCI-H522 lung and in the assay with SF-268 CNS was above 100 µM each time. The TGI in the assay with SF-295 CNS, in the assay on SK-MEL-2 melanoma, with SK-OV-3 ovarian, with UACC-257 melanoma and with UACC-62 melanoma was above 100 µM in each case.

On to `O=c1[nH]nc(CNc2ccc(Cl)cc2Cl)c2ccccc12`, for which the TGI in the assay with A498 renal is 33.7 µM; with ACHN renal, 46.2 µM; in the assay on CAKI-1 renal, 51.7 µM; in the assay on COLO 205 colon it was above 100 µM; in the assay on EKVX NSCLC, 85.7 µM; in the assay on HCT-15 colon it was 89.1 µM. Besides, the TGI with IGROV1 ovarian is 58.7 µM; in the assay on LXFL 529 NSCLC, 40.1 µM; in the assay on M14 melanoma, above 100 µM; with MOLT-4 leukemia it was above 100 µM; in the assay on NCI-H522 lung it was 41.7 µM; in the assay on SF-268 CNS it was 44.7 µM. Further, the TGI with SF-295 CNS was 44.7 µM; with SK-MEL-2 melanoma, above 100 µM; in the assay on SK-OV-3 ovarian, 38.1 µM; in the assay on UACC-257 melanoma, 92.7 µM; in the assay on UACC-62 melanoma, above 100 µM.

As for `CSc1nc(NC2OCC(OC(C)=O)C(OC(C)=O)C2OC(C)=O)c2c(n1)OCC2=O` (configuration not stated), the TGI in the assay with A498 renal, in the assay on ACHN renal, in the assay on CAKI-1 renal, in the assay with COLO 205 colon, in the assay on EKVX NSCLC and in the assay on HCT-15 colon was above 100 µM in each case. In addition, the TGI in the assay on IGROV1 ovarian, in the assay on LXFL 529 NSCLC, in the assay on M14 melanoma, with MOLT-4 leukemia, in the assay with NCI-H23 lung and in the assay with NCI-H522 lung was above 100 µM in each case. The TGI in the assay with SF-268 CNS, with SF-295 CNS, in the assay on SK-MEL-2 melanoma, in the assay on SK-OV-3 ovarian, in the assay with UACC-257 melanoma and with UACC-62 melanoma was above 100 µM in each case.

In the case of `O=C1NC(=S)NC(=O)C1=CC1CC1`, the TGI in the assay with A498 renal, in the assay with ACHN renal, with CAKI-1 renal, in the assay on COLO 205 colon, in the assay on EKVX NSCLC and in the assay on HCT-15 colon was above 100 µM throughout. Further, the TGI with IGROV1 ovarian, in the assay with LXFL 529 NSCLC, in the assay with M14 melanoma, in the assay with MOLT-4 leukemia, in the assay on NCI-H23 lung and with NCI-H522 lung was above 100 µM throughout. Also, the TGI with SF-268 CNS, in the assay with SF-295 CNS, in the assay with SK-MEL-2 melanoma, in the assay with SK-OV-3 ovarian, with UACC-257 melanoma and with UACC-62 melanoma was above 100 µM throughout.

Turning to `Nc1ccn(CCOC(c2ccccc2)P(=O)(O)O)c(=O)n1` (configuration not stated), the TGI in the assay with A498 renal, in the assay on ACHN renal, in the assay on CAKI-1 renal, in the assay with COLO 205 colon, in the assay with EKVX NSCLC and in the assay with HCT-15 colon was above 100 µM in each case. For the same molecule, the TGI with IGROV1 ovarian, in the assay with LXFL 529 NSCLC, in the assay with MOLT-4 leukemia, with NCI-H23 lung, with NCI-H522 lung and in the assay with SF-268 CNS was above 100 µM each time. For the same molecule, the TGI with SF-295 CNS, with SK-MEL-2 melanoma, in the assay on SK-OV-3 ovarian, in the assay on UACC-257 melanoma and in the assay on UACC-62 melanoma was above 100 µM throughout.
